pIC50: −log10 of the molar value.
Assays:
[1] = tested on: LPS-induced lethality in mice; conditions: cited from earlier work
[2] = target: T1, human recombinant MMP-12 catalytic domain (Homo sapiens, UniProt P39900); assay: Detailed dose-response with Substrate XIII (AnaSpec) quenched fluorescent substrate; assay type: biochemical
T1 construct: human recombinant MMP-3 (72006, AnaSpec) and MMP-12 catalytic domains (55525-1, AnaSpec); purchased AnaSpec 55525-1
Protocol: […] Briefly, the compound was dissolved in dimethyl sulfoxide (DMSO) and further diluted in assay buffer (50 mM HEPES, 10 mM CaCl2, 0.05% Brij-35, and pH 7.5). […] In each experiment we included a blank, a substrate control (substrate only in assay buffer), a positive control (NNGH, 1.3 μM final concentration), and negative control (only substrate and inhibitor in assay buffer). The latter was implemented to exclude possible interference of the inhibitor with the substrate. […] The IC50 values were determined in a single experimental run in duplicate. Data analysis and curve fitting for determination of IC50 values were performed in GraphPad Prism 6.

[3] = target: T1, human recombinant MMP-12 catalytic domain; assay: Recombinant MMP fluorescent assay kit (OmniMMP substrate), initial screen; assay type: biochemical; conditions: pH 7.5, 1 h incubation at 37°C, OmniMMP substrate 4 μM, read-out: apparent IC50 MMP-12 (initial screen)
Protocol: (§1) The specificity of the synthesized inhibitor was determined in vitro against a panel of ten human recombinant MMP catalytic domains using a fluorescent assay kit (BML-AK016, Enzo Life Sciences). Briefly, the compound was dissolved in dimethyl sulfoxide (DMSO) and further diluted in assay buffer (50 mM HEPES, 10 mM CaCl2, 0.05% Brij-35, and pH 7.5). Ten MMPs (MMP-1, MMP-2, MMP-3, MMP-7, MMP-8, MMP-9, MMP-10, MMP-12, MMP-13, and MMP-14) were individually incubated with varying concentrations of inhibitor for one hour at 37°C, followed by addition of a quenched fluorogenic substrate (OmniMMP fluorogenic substrate Mca-Pro-Leu-Gly-Leu-Dpa-Ala-Arg-NH2 [Mca is (7-methoxycoumarin-4-yl)-acetyl; Dpa is N-3-(2,4-dinitrophenyl)-L-α-β-diaminopropionyl], 4 μM in assay). […] After each fluorescent measurement the well plates were shaken for 2 sec to agitate the reagents. In each experiment we included a blank, a substrate control (substrate only in assay buffer), a positive control (NNGH, 1.3 μM final concentration), and negative control (only substrate and inhibitor in assay buffer). The latter was implemented to exclude possible interference of the inhibitor with the substrate. […] The IC50 values were determined in a single experimental run in duplicate. Data analysis and curve fitting for determination of IC50 values were performed in GraphPad Prism 6.

[4] = target: T2, human recombinant MMP-2 catalytic domain (Homo sapiens, UniProt P08253); assay: Recombinant MMP fluorescent assay kit (OmniMMP substrate); assay type: biochemical
T2 construct: a panel of ten human recombinant MMP catalytic domains; purchased Enzo Life Sciences BML-AK016
Protocol: as §1

[5] = target: T3, human recombinant MMP-8 catalytic domain (Homo sapiens, UniProt P22894); assay: as above; assay type: biochemical
T3 construct: a panel of ten human recombinant MMP catalytic domains; purchased Enzo Life Sciences BML-AK016
Protocol: as §1

[6] = target: T4, human recombinant MMP-7 catalytic domain (Homo sapiens, UniProt P09237); assay: as above; assay type: biochemical
T4 construct: a panel of ten human recombinant MMP catalytic domains; purchased Enzo Life Sciences BML-AK016
T4 sequence (P09237 95-267): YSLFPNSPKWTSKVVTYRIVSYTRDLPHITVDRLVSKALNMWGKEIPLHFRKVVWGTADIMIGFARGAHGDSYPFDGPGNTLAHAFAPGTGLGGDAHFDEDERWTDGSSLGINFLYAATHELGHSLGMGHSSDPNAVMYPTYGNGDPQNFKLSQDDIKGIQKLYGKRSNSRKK
Protocol: as §1

[7] = target: T5, human recombinant MMP-10 catalytic domain (Homo sapiens, UniProt P09238); assay: as above; assay type: biochemical
T5 construct: a panel of ten human recombinant MMP catalytic domains; purchased Enzo Life Sciences BML-AK016
Protocol: as §1

[8] = target: T6, human recombinant MMP-13 catalytic domain (Homo sapiens, UniProt P45452); assay: as above; assay type: biochemical
T6 construct: a panel of ten human recombinant MMP catalytic domains; purchased Enzo Life Sciences BML-AK016
Protocol: as §1

[9] = target: T7, human recombinant MMP-3 catalytic domain (Homo sapiens, UniProt P08254); assay: as above; assay type: biochemical
T7 construct: a panel of ten human recombinant MMP catalytic domains; purchased Enzo Life Sciences BML-AK016
Protocol: as §1

[10] = target: T8, human recombinant MMP-9 catalytic domain (Homo sapiens, UniProt P14780); assay: as above; assay type: biochemical
T8 construct: a panel of ten human recombinant MMP catalytic domains; purchased Enzo Life Sciences BML-AK016
Protocol: as §1

[11] = target: T9, human recombinant MMP-1 catalytic domain (Homo sapiens, UniProt P03956); assay: as above; assay type: biochemical
T9 construct: a panel of ten human recombinant MMP catalytic domains; purchased Enzo Life Sciences BML-AK016
T9 sequence (P03956 100-269 limits assumed): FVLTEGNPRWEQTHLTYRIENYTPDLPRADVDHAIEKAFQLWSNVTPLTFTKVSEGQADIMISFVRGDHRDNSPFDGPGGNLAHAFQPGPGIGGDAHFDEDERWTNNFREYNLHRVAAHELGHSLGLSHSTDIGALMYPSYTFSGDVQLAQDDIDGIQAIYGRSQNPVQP
Protocol: as §1

[12] = target: T10, human recombinant MMP-14 catalytic domain (Homo sapiens, UniProt P50281); assay: as above; assay type: biochemical
T10 construct: a panel of ten human recombinant MMP catalytic domains; purchased Enzo Life Sciences BML-AK016
Protocol: as §1

[13] = tested on: primary mouse choroid plexus epithelial cells; assay: Blood-CSF barrier permeability in vitro (ECIS impedance); assay type: cell-based; conditions: 1 μM inhibitor 1 hour before LPS 1000 ng/mL; n = 3
Protocol: Culturing primary mouse choroid plexus epithelial cells was done as described. In brief, 2–9-day-old pups were decapitated and brains were isolated. Choroid plexuses from all four ventricles were isolated under a dissection microscope. The cells were dissociated enzymatically by incubating them for 5–7 min with pronase (isolated from Streptomyces griseus, Sigma). Digestion was stopped by adding an excess of HBSS buffer and the cells were washed twice with HBSS. The cell pellet was resuspended in DMEM-F12 culture medium and plated on laminin-coated plates. Two days later, they were shifted to DMEM-F12 containing cytosine arabinoside (Ara-C) to eliminate growth of fibroblasts. Cultures were maintained at 37°C in 5% CO2. Purity of the cultures was confirmed by checking the levels of transthyretin (TTR) both by qPCR and by immunostaining. Primary CPE cells retained the epithelial and the barrier properties which were confirmed by staining for E-cadherin, ZO-1, and occludin. The electric cell-substrate impedance (ECIS) technique (Applied Biophysics) was used to monitor barrier properties as described before. 250.000 cells per well were seeded onto laminin-coated 8W10E array plates (Applied Biophysics) and the array holder was placed in a standard cell culture incubator (37°C, 100% humidity, and 5% CO2). Array plates were connected to the instrument and multifrequency measurements were started. […]

[14] = tested on: LPS-induced lethality in C57BL/6 mice; assay: Endotoxemia model: survival after lethal LPS challenge; assay type: in vivo, mouse; conditions: 100 μg i.p. 15 min before and 3 and 6 h after LPS 200 μg/20 g i.p. (LD100), log-rank test
Source text: Female C57BL/6J (8–10 weeks old) mice were purchased from Janvier Labs (France) and MMP-12 knockout mice (MMP-12^−/−) (in C57BL/6J background together with littermate MMP-12^+/+ controls) were obtained from Dr. Steven Shapiro (University of Pittsburgh, USA). C57BL/6 and MMP-12^−/− mice were housed with 4–6 mice/cage with ad libitum access to food and water and with a 14-hour light/10-hour dark cycle in a specific pathogen-free animal facility and conventional facility, respectively. All experiments were approved by the Ethics Committee of the Faculty of Sciences of Ghent University.
Endotoxemia was induced by intraperitoneal (i.p.) injection of lipopolysaccharide (LPS) from Salmonella enterica serotype abortus equi (Sigma) dissolved in PBS. […] Control animals received i.p. injections of PBS. Rectal temperature was measured periodically after challenge. 100 μg MMP-12i (1 μg/μL) or vehicle control was administered intraperitoneally at different time points: 15 min before and 3 and 6 hours after LPS administration.

T1 sequence (P39900 106-263 limits assumed): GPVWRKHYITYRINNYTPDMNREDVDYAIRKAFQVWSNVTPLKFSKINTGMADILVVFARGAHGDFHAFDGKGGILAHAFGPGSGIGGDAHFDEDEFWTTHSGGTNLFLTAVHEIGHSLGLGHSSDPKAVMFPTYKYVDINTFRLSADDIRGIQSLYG
T5 sequence (P09238 99-263 limits assumed): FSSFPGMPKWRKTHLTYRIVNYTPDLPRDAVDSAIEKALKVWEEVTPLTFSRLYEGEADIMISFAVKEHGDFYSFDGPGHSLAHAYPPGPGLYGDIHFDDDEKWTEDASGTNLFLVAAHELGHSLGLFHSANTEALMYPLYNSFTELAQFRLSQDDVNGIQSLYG
T3 sequence (P22894 100-262 limits assumed): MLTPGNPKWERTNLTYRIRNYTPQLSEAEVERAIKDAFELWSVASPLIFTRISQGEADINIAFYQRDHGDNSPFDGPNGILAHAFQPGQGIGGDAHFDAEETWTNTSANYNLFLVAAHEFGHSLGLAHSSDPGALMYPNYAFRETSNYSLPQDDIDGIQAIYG
T8 sequence (P14780 107-444 limits assumed): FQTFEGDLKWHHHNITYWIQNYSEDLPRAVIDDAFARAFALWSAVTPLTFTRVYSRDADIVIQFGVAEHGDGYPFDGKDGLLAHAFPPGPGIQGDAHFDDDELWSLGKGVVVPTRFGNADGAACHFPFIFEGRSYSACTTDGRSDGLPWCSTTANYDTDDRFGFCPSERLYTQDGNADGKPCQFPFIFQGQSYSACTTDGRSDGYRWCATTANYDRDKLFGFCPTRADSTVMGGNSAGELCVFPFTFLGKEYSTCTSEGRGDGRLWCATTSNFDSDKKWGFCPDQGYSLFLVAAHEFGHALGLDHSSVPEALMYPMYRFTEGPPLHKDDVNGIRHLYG
T2 sequence (P08253 110-446 limits assumed): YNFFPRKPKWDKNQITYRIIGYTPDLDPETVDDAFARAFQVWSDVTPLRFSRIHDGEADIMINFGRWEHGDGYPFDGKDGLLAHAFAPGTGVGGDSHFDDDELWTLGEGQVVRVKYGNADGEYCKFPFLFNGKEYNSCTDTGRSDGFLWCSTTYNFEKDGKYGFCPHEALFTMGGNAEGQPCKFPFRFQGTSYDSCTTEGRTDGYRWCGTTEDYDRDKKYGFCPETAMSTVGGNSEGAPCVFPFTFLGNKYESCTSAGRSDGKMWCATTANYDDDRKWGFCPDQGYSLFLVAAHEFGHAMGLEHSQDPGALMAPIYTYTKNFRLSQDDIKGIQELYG
T7 sequence (P08254 100-272 limits assumed): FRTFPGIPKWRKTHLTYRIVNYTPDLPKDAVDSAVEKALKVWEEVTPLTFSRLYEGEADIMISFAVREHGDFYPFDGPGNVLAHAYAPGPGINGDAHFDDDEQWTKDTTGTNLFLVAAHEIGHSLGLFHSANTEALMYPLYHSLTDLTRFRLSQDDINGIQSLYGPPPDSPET

SMILES	protection from LPS-induced lethality [1]	IC50 ([2]; Figure 1(c) fitted dose-response curve, read-out: log(IC50) MMP-12 (converted)) [µM]	inhibitory plateau at higher inhibitor concentrations, MMP-12 ([2]; Substrate XIII (AnaSpec), nonlinear regression) [%]	pIC50 ([2]; Substrate XIII (AnaSpec), nonlinear regression of dose-response curve, read-out: relative IC50 MMP-12)	pIC50 [3]	pIC50 [4]	pIC50 [5]	pIC50 [6]	pIC50 [7]	pIC50 [8]	pIC50 [9]	pIC50 [10]	pIC50 [11]	pIC50 [12]	LPS-induced drop in normalized resistance (ECIS, low frequency) [13]	LPS-induced lethality (survival) vs vehicle [14]
CNC(=O)[C@H](Cc1ccccc1)NC(=O)[C@H](CC(C)C)[C@H](CSc1cccs1)C(=O)NO [BB-94]	protected from LPS-induced lethality	–	–	–	–	–	–	–	–	–	–	–	–	–	–	–
Cc1cc(=O)c(O)c(C(=O)NCc2ccc(-c3ccc(-c4ccccc4)cc3)cc2)o1 [Compound 9, N-([1,1′:4′,1′′-Terphenyl]-4-ylmethyl)-3-hydroxy-6-methyl-4-oxo-4H-pyran-2-carboxamide]	–	0.177	72 ± 1.75	6.75	> 5.70	4.30 to 5.70	4.30 to 5.70	< 4.30	< 4.30	< 4.30	< 4.30	< 4.30	< 4.30	4.30 to 5.70	significantly reduced	significant reduction in LPS-induced lethality

— paper PMC4550771, “Synthesis and Validation of a Hydroxypyrone-Based, Potent, and Specific Matrix Metalloproteinase-12 Inhibitor with Anti-Inflammatory Activity In Vitro and In Vivo” (Mediators of Inflammation, 2015)
